Test results: patent US9958451B2, “Near-infrared fluorescent dyes with large stokes shifts” (Portland State University, priority 2011, dated 2018)
“And” between values parts separate entries of the source, which are not always exact repeats. Equal values may be shown once. Marks after values point to notes of the source that are not given here.

Assays:
[1] = Saccharide sensing, response to ribose; details: DMSO:buffer 1:1, entire concentration range
Description: (§1) Solvents including MeCN, MeOH, EtOH, DMSO and buffer were initially screened for sugar sensing. […] DMSO mixtures were chosen for further studies.
(§2) The final pH 7.4 phosphate buffer concentration was 12.5 mM.

[2] = Spectral properties of rhodamine bis-boronic acids and precursors in DMSO:buffer; assay type: physicochemical; set-up: Brightness: scale not given here; details: for Quenching of emission (PET) of the free boronic acid: DMSO buffer 1:9
Description: Characterization: The spectral properties of compounds 50-53 were determined. Absorption and fluorescence spectra of solutions of the rhodamine bis-boronic acids 51 and 53, and their respective precursors 50 and 52, are shown in FIGS. 27A-C (in DMSO:buffer 1:9) and 27D-F (DMSO:buffer 1:1). […] Excitation and emission spectra were normalized to their absorbance at the excitation wavelength, and are proportional to quantum yield.

[3] = Saccharide sensing, response to fructose
Description: as §1, §2

[4] = Quantum yield in 10:90 DMSO:aqueous solutions; assay type: physicochemical; details: aqueous solution
Description: The quantum yield of yellow-orange emitting 16a was 0.4649, 40 times greater than the corresponding neutral compound 15a. It was slightly higher than the yellow-green emitting neutral compound 20a, and >2 times higher than orange-red emitting anion 20c. The compounds (7.5 μM) were analyzed in 10:90 DMSO:aqueous solutions. Fluorescence emission was readily visible in a darkened room when the solutions were excited from below with 3-watt megaMAX 505 nm ALS system. The emission-enhancing properties afforded through the combination of the 3-1 transposition and methylation is in contrast to previously reported methyl ethers of seminaphthofluorescein compounds.

[5] = Fluorescence emission spectra, 15 μM in 90% aqueous, 10% DMSO; assay type: physicochemical
Description: Compounds 21 and 7 also were characterized by their fluorescence emission spectra. Fluorescence was measured using 15 μM solutions of each compound in a solution that was 90% aqueous, 10% DMSO. For compound 21, the longest wavelength emission observed from the dianions occurred near 680 nm at pH 9. For compound 7 (transposed), the longest wavelength emission observed from the monoanion occurred near 800 nm at pH 9.
Compounds 22 and 8 also were characterized by their fluorescence emission spectra. Fluorescence was measured using 15 μM solutions of each compound in a solution that was 90% aqueous, 10% DMSO For compound 22, the longest wavelength emission observed from the anion occurred near 690 nm at pH 9. […] Given the greater than 800 nm absorbance peak and the typically large Stokes shifts observed in this class of compounds, it is likely that the emission was beyond the working range of the instrument (>850 nm).
Compounds 20 and 15a also were characterized by their fluorescence emission spectra. Fluorescence was measured using 15 μM solutions of each compound in a solution that was 90% aqueous, 10% DMSO. For compound 20a, the longest wavelength emission observed from its corresponding anion, compound 20c, occurred near 640 nm in NaOH (pH 12). For compound 15a (transposed), the longest wavelength emission observed from the corresponding anion, compound 15h, occurred near 760 nm in NaOH.
Compound 15b also was characterized by its fluorescence emission spectrum and compared to C.SNARF-5. Fluorescence was measured using a 15 μM solution of compound 15b in a solution that was 90% aqueous, 10% DMSO. For C.SNARF-5, the longest wavelength emission observed from the anion occurred near 632 nm (Whitaker et al., Anal. Biochem. 1991, 194, 330-344). For compound 15b (transposed), the longest wavelength emission observed from the phenoxide occurred near 770 nm.
Fluorescence was measured using a 15 μM solution of compound 15d in a solution that was 90% aqueous, 10% DMSO. […] For compound 15d (transposed), the longest wavelength emission observed from the phenoxide occurred near 780 nm (NaOH, pH 12).
Compounds 20b and 15g also were characterized by their fluorescence emission spectra. Fluorescence was measured using 15 μM solutions of each compound in a solution that was 90% aqueous, 10% DMSO. For compound 20b, the longest wavelength emission observed from the cation occurred near 640 nm at pH 7.4. For compound 15g (transposed), the longest wavelength emission observed from the cation occurred near 770 nm at pH 7.4.

[6] = UV-visible absorbance spectroscopy, 15 μM in 90% aqueous, 10% DMSO; assay type: physicochemical; details: 90% aqueous 10% DMSO
Description: Compounds 21 and 7 were characterized by UV-visible spectroscopy (FIG. 15). Absorbance was measured using 15 μM solutions of each compound in a solution that was 90% aqueous, 10% DMSO. The peaks at 600 nm (light dashed line) and 675 nm (light solid line) represent the dianions of compounds 21 and 7, respectively, in NaOH (pH 12). The peaks at 590 nm (heavy dashed line) and 650 nm (heavy solid line) represent a mix of mono- and dianions of compound 21 at pH 7.4 and predominantly monoanions of compound 7 at pH 9, respectively.
Compounds 22 and 8 were characterized by UV-visible spectroscopy (FIG. 16). Absorbance was measured using 15 μM solutions of each compound in a solution that was 90% aqueous, 10% DMSO. The peaks at 610 nm (light dashed line) and 685 nm (light solid line) represent the anions of compounds 22 and 8, respectively, in NaOH (pH 12). The peaks at 605 nm (heavy dashed line) and 805 nm (heavy solid line) represent the neutral forms of compounds 22 and 8 at pH 7.4, respectively.
Compounds 20a and 15a were characterized by UV-visible spectroscopy (FIG. 17). Absorbance was measured using 15 μM solutions of each compound in a solution that was 90% aqueous, 10% DMSO. The peaks at 545 nm (light dashed line) and 595 nm (light solid line) represent the respective anions, compounds 20c and 15h, in NaOH (pH 12).
Compound 15b (free amino) was characterized by UV-visible spectroscopy (FIG. 18), and compared to C.SNARF-5 (literature, SNARF=seminaphthorhodafluor). Absorbance was measured using a 15 μM solution of compound 15b in a solution that was 90% aqueous, 10% DMSO. The peak at 535 nm (heavy line) represents the predominantly phenolic form of 15b at pH 6. The peak at 615 nm (light line) represents the phenoxide of compound 15b at in NaOH (pH12). In comparison, C.SNARF-5 produces a peak at 550 nm (anionic form) and a peak at 485 nm (neutral form) (Whitaker et al., Anal. Biochem. 1991, 194, 330-344).
Absorbance was measured using 15 μM solutions of compound 15d in a solution that was 90% aqueous, 10% DMSO. The peak at 570 nm (heavy line) represents the predominantly neutral form of 15d at pH 6. The peak at 630 nm (light line) represents the phenoxide of compound 15d in NaOH (pH 12).
Compounds 20b and 15g were characterized by UV-visible spectroscopy (FIG. 20). Absorbance was measured using 15 μM solutions of each compound in a solution that was 90% aqueous, 10% DMSO. The peaks at 540 nm (dashed line) and 570 nm (solid line) represent the cations of compounds 20b and 15g, respectively, at pH 7.4.

[7] = DMSO:buffer 1:1, pH 7.4 phosphate buffer 12.5 mM
[8] = DMSO:buffer 1:9, pH 7.4 phosphate buffer 12.5 mM

Quenching of emission (PET) of the free boronic acid [2]	Brightness ([2]; DMSO:buffer 1:1)	Em ([2]; DMSO:buffer 1:1) [nm]	Ex ([2]; DMSO:buffer 1:1) [nm]	Q.Y. ([2]; DMSO:buffer 1:1)	ε ([2]; DMSO:buffer 1:1) [M⁻¹ cm⁻¹]	Abs [2, 7] [nm]	Brightness ([2]; DMSO:buffer 1:9)	Em ([2]; DMSO:buffer 1:9) [nm]	Ex ([2]; DMSO:buffer 1:9) [nm]	Q.Y. ([2]; DMSO:buffer 1:9)	ε ([2]; DMSO:buffer 1:9) [M⁻¹ cm⁻¹]	Abs [2, 8] [nm]	SMILES	further results
slightly quenched	8037	643	580	0.35	23096	579	3032^e	638	568	0.15	20326	560	O=C(O)c1ccccc1-c1c2ccc(=NCc3ccccc3B(O)O)cc-2oc2c1ccc1cc(NCc3ccccc3B(O)O)ccc12 [Compound 51, seminaphthorhodamine bis-boronic acid]	Increase in absorbance [1]: approximately 1.5 fold; Increase in fluorescence [1]: approximately 1.5 fold
nearly completely quenched	292^g	700	624	0.18	1616	616	43^d,f	692	612	0.004	10759	628	O=C(O)c1ccccc1-c1c2ccc3cc(NCc4ccccc4B(O)O)ccc3c2oc2c1ccc1cc(=NCc3ccccc3B(O)O)ccc12 [Compound 53, naphthorhodamine bis-boronic acid]	Estimated quantum yield after binding ([3]; DMSO:buffer 1:9): 0.186; Increase in absorbance at 630 nm ([3]; DMSO:buffer 1:9, highest concentration of fructose): less than 3 fold
													COC(=O)c1ccccc1-c1c2ccc(=O)cc-2oc2c1ccc1cccc(O)c12 [Compound 15h]	Quantum yield [4]: less than 1%; Enhancement of the Stokes shift by 3-1 transposition [5]: about 70 nm; Longest wavelength emission ([5]; NaOH (pH 12), anion/phenoxide): 760 nm; Red shift of absorption spectra from 3-1 transposition versus known regiochemistry ([6]; depending on the ionization state): 50 nm; Absorbance peak ([6]; NaOH (pH 12), anionic/phenoxide form): 595 nm and 599 nm
